{"source": "patent US6410791B1", "about": "“Nitric esters and nitrate salts of specific drugs” (priority 1998, dated 2002)", "key": {"heart frequency": {"system": "heart frequency", "experiment": "Heart frequency (tachycardia) by electrocardiographic device during the capsaicin bronchoconstriction test", "format": "in vivo", "conditions": "guinea pig, 0.3 nmoles/min i.v. infusion for 15 minutes; percent values with respect to the control (carrier = 100; vehicle 188±7 beats per minute)", "protocol": "(§1) Each groups consisted of eight animals. […] For a total 15 minutes, starting from 5 minutes before capsaicin injection to 10 minutes after) Salbutamol (0.3 nmoles/min), or the corresponding nitrate salt (0.3 nmoles/min) or only the carrier were administered by intravenous infusion were administered to each group.\nThe heart frequency was determined by an electrocardiographic device, according to the usual methods."}, "[1]": {"system": "bronchoconstrictive response induced by capsaicin", "experiment": "Experimental bronchoconstriction induced by capsaicin (tidal air variation, Konzett apparatus)", "format": "in vivo", "conditions": "guinea pig, capsaicin 1 μg/Kg i.v., 0.3 nmoles/min i.v. infusion for 15 minutes; percent values with respect to the control (carrier = 100)", "protocol": "as §1\nThe heart frequency was determined by an electrocardiographic device, according to the usual methods. The average value of the heart frequency following administration of the vehicle was of 188±7 beats per minute."}, "tracheal secretion": {"system": "tracheal secretion", "experiment": "Mucolitic activity: phenol red in the tracheal secretion", "format": "in vivo", "conditions": "male mice, 264 micromoles/Kg i.p. ten minutes before phenol red 500 mg/Kg i.p.; % variation of absorbance versus control group = 100%", "protocol": "Mucolitic activity in male mice was evaluated according to the Method of Engler and Zselenyi, J. Pharm. Methods 11, 151, 1984. By this method it is determined the quantity of phenol red in the tracheal secretion. The animals were previously administered i.p. at a dose of 500 mg/Kg with the dye dissolved in physiologic solution. 3 groups of mice (weight 18±2 g), of 10 animal each, were treated i.p. with the dye. One group was the control group. Each of the two treated groups received, ten minutes before the above injection, an i.p. injection of 264 micromoles/Kg of Ambroxol nitrate or Ambroxol hydrochloride, respectively. 30 minutes after the phenol red injection, the animals were sacrificed. The trachea was freed from the surrounding tissues, dissected and washed for 30 minutes in 3 ml of physiologic solution. 0.1 ml of 1 M sodium hydroxide were then added to the physiologic solution. The washings were centrifuged for 15 minutes at 3000 rpm. A spectrophotometric assay was performed on the supernatant in order to determine the concentration of phenol red in the physiologic solution. Mucolitic activity was determined as % variation of absorbance of the sample in the confront of that of the control group, assumed to be 100%."}, "[2]": {"system": "cough stroke caused by the aerosol (citric acid)", "experiment": "Anti-tussive activity: cough strokes caused by citric acid aerosol", "format": "in vivo, Guinea pigs", "conditions": "guinea pig, citric acid 7.5% aerosol, 110 micromoles/Kg i.p., 30 minutes after injection, counted for 10 minutes; control group = 100%", "protocol": "Guinea pigs (weight 430+20) were treated as described by Braga et Al. Arzneim. Forsch./Drug Res. 43, 550, 1993.\nIn this pharmacological experiment 5 groups of 8 animals each were formed. One group was not treated and was the control group.\nEach animal was placed in a cylindrical glass container having one tubing through each of the two circular flat surfaces. Said tubing were, respectively, for the aerosol inlet and outlet. The outlet tubing is connected to a polygraphic system.\nThe aerosol was formed from a solution 7.5% by weight of citric acid in water.\nThe air variation inside the glass container was registered before and after a cough stroke caused by the aerosol. One hour later Dextromethorphan hydrochloride, Dextromethorphan nitrate, Dextrorphan hydrochloride and dextrorphan nitrate were i.p. administered in a physiologic solution at a dose of 110 micromoles/Kg. 30 minutes after the injection the animals were treated with the aerosol. It was then registered the number of cough strokes for a time of 10 minutes. In the following Table III are reported the average response obtained from each treated group, referred to that of the control group, made 100%."}, "histamine": {"system": "histamine", "experiment": "Antihistaminic activity: experimental bronchoconstriction after i.v. histamine", "format": "in vivo", "conditions": "guinea pig, histamine 2 μg/Kg i.v., compound endovenously, percent values with respect to the control (vehicle = 100)"}}, "note": "Structures can show the parent of a compound that is named as a salt.", "data": [{"smiles": "CC(C)(C)NCC(O)c1ccc(O)c(CO)c1", "note": "(stereo not drawn) [Salbutamol]", "values": [{"measurement": "Tachycardia (%)", "setting": "heart frequency", "result": 116, "unit": "%"}, {"measurement": "Bronchoconstriction (%)", "setting": "[1]", "result": 0, "unit": "%"}]}, {"smiles": "Nc1c(Br)cc(Br)cc1CN[C@H]1CC[C@H](O)CC1", "note": "[Ambroxol hydrochloride]", "values": [{"measurement": "Mucolitic activity (%)", "setting": "tracheal secretion", "result": 30, "unit": "%"}]}, {"smiles": "CN1CC[C@@]23CCCC[C@@H]2[C@@H]1Cc1ccc(O)cc13", "note": "[Dextrorphan hydrochloride]", "values": [{"measurement": "cough strokes (%)", "setting": "[2]", "result": 40, "unit": "%"}]}, {"smiles": "O=C(O)COCCN1CCN(C(c2ccccc2)c2ccc(Cl)cc2)CC1", "note": "(stereo not drawn) [Cetirizine nitrate]", "values": [{"measurement": "Broncocostriction (%)", "setting": "histamine", "result": 0, "unit": "%"}]}, {"smiles": "CC(C)(C)NCC(O)c1ccc(O)c(CO)c1", "note": "(stereo not drawn) [Salbutamol.HNO3, Salbutamol nitrate]", "values": [{"measurement": "Tachycardia (%)", "setting": "heart frequency", "result": 97, "unit": "%"}, {"measurement": "Bronchoconstriction (%)", "setting": "[1]", "result": 0, "unit": "%"}]}, {"smiles": "CN1CC[C@]23CCCC[C@H]2[C@H]1Cc1ccc(O)cc13", "note": "[Dextrorphan nitrate]", "values": [{"measurement": "cough strokes (%)", "setting": "[2]", "result": 0, "unit": "%"}]}, {"smiles": "O=C(O)COCCN1CCN(C(c2ccccc2)c2ccc(Cl)cc2)CC1", "note": "(stereo not drawn) [Cetirizine hydrochloride]", "values": [{"measurement": "Broncocostriction (%)", "setting": "histamine; hydrochloride", "result": 40, "unit": "%"}]}, {"smiles": "COc1ccc2c(c1)[C@@]13CCCC[C@H]1[C@@H](C2)N(C)CC3", "note": "[Dextromethorphan nitrate]", "values": [{"measurement": "cough strokes (%)", "setting": "[2]", "result": 0, "unit": "%"}]}, {"smiles": "COc1ccc2c(c1)[C@]13CCCC[C@@H]1[C@H](C2)N(C)CC3", "note": "[Dextromethorphan hydrochloride]", "values": [{"measurement": "cough strokes (%)", "setting": "[2]", "result": 30, "unit": "%"}]}, {"smiles": "Nc1c(Br)cc(Br)cc1CNC1CCC(O)CC1", "note": "(stereo not drawn) [Ambroxol nitrate]", "values": [{"measurement": "Mucolitic activity (%)", "setting": "tracheal secretion", "result": 0, "unit": "%"}]}]}
